Assay results: US6716833B2, “Acetylenic α-amino acid-based sulfonamide hydroxamic acid tace inhibitors” (priority 1999, dated 2004)
Where a name gives a salt, the structure may show the parent alone. Read-outs that look alike come from different tables or passages of the source.

How the values were obtained:
Format in all cases: biochemical
MMP-1 = biological target: T1, MMP-1 (Homo sapiens, UniProt P03956); assay: MMP-1 inhibition (thiopeptide or fluorescent peptide substrate); details: read-out: MMP-1 IC50
T1 sequence (P03956 100-469): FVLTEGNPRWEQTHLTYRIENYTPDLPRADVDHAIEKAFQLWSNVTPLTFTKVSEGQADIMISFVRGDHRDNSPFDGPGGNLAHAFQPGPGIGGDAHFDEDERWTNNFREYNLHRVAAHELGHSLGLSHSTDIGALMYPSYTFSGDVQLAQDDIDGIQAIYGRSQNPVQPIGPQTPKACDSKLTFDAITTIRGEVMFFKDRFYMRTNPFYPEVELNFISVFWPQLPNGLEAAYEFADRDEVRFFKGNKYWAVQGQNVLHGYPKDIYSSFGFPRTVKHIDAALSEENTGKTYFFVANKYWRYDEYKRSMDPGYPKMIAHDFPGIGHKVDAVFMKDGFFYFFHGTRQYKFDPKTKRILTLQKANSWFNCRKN

MMP-9 = MMP-9 (Homo sapiens, UniProt P14780); assay: MMP-9 inhibition (thiopeptide or fluorescent peptide substrate); details: read-out: MMP-9 IC50
Chain of MMP-9 (P14780 94-707): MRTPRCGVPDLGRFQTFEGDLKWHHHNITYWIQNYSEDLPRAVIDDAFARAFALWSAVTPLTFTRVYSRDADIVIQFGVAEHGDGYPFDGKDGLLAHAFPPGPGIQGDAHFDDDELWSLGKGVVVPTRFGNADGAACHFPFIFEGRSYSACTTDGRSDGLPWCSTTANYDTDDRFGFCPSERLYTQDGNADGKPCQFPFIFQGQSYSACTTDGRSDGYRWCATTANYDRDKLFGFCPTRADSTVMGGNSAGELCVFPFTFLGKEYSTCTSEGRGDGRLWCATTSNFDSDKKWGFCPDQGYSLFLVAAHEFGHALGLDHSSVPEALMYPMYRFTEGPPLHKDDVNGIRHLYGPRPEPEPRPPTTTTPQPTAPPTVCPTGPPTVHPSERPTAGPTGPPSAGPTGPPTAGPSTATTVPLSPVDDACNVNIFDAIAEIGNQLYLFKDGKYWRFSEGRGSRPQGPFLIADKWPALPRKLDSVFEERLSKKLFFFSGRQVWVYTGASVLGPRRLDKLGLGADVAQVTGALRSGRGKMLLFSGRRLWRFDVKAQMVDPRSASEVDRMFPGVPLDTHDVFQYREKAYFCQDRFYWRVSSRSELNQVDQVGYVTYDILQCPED
Procedure: The enzyme activity is measured by the rate of the color increase. The thiopeptide substrate is made up fresh as a 20 mM stock in 100% DMSO and the DTNB is dissolved in 100% DMSO as a 100 mM stock and stored in the dark at room temperature. Both the substrate and DTNB are diluted together to 1 mM with substrate buffer (50 mM HEPES pH 7.5, 5 mM CaCl2) before use. The stock of enzyme is diluted with buffer (50 mM HEPES, pH 7.5, 5 mM CaCl2, 0.02% Brij) to the desired final concentration.
Alternatively, a fluorescent peptide substrate is used. In this test procedure, the peptide substrate contains a fluorescent group and a quenching group. Upon cleavage of the substrate by an MMP, the fluorescence that is generated is quantitated on the fluorescence plate reader. The assay is run in HCBC assay buffer (50 mM HEPES, pH 7.0, 5 mM Ca^+2, 0.02% Brij, 0.5% Cysteine), with human recombinant MMP-1, MMP-9, or MMP-13. […] For the assay, substrate and enzymes are diluted in HCBC buffer to the desired concentrations. Compounds are added to the 96 well plate containing enzyme and the reaction is started by the addition of substrate.
For either the thiopeptide or fluorescent peptide test procedures, the slope of the line is calculated and represents the reaction rate. The linearity of the reaction rate is confirmed (r^2>0.85). The mean (x±sem) of the control rate is calculated and compared for statistical significance (p<0.05) with drug-treated rates using Dunnett's multiple comparison test.

MMP-13 = MMP-13 (Homo sapiens, UniProt P45452); assay: MMP-13 inhibition (thiopeptide or fluorescent peptide substrate); details: read-out: MMP-13 IC50
[1] = biological target: TNF-α converting enzyme (TACE) (Homo sapiens, UniProt P78536); assay: TACE inhibition (fluorescent peptidyl substrate); details: read-out: TACE IC50
Chain of TNF-α converting enzyme (TACE) (P78536 215-824, species assumed): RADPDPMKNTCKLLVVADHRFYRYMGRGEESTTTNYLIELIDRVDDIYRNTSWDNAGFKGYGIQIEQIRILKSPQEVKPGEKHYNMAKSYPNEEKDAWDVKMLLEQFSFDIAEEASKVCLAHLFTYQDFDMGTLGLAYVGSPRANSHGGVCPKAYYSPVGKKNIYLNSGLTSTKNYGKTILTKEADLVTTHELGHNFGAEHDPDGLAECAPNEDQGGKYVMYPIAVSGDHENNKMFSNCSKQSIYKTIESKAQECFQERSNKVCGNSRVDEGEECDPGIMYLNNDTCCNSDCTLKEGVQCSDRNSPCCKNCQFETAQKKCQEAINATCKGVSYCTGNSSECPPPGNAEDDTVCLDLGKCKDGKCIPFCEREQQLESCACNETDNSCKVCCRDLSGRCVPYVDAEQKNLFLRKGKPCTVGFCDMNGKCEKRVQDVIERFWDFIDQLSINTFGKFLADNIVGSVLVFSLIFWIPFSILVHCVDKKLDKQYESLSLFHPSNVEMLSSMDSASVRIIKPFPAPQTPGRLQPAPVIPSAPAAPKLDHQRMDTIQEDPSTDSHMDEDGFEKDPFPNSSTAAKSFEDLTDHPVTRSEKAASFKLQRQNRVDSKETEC

Compound	IC50 (MMP-1) [nM]	IC50 (MMP-9) [nM]	IC50 (MMP-13) [nM]	IC50 [1] [nM]	other results
CC(C)(C)OC(=O)NCC#CCOc1ccc(S(=O)(=O)N2CCSC(C)(C)C2C(=O)NO)cc1 (centres unmarked) [Example 266, tert-Butyl 4-[4-({3-[(Hydroxyamino)carbonyl]-2,2-dimethyl-4-thiomorpholinyl}sulfonyl)phenoxy]-2-butynylcarbamate]	–	–	–	–	IC50 (MMP-1; Table 10): 26 nM; IC50 (MMP-9; Table 10): 31 nM; IC50 (MMP-13; Table 10): 4 nM; IC50 ([1]; Table 10): 74 nM
CC#CCOc1ccc(S(=O)(=O)N(CCCN2CCOCC2)C(C(=O)NO)C(C)C)cc1 (centres unmarked) [Example 119, 2-{{[4-(2-Butynyloxy)phenyl]sulfonyl}[3-(4-morpholinyl)propyl]amino}-N-hydroxy-3-methylbutanamide]	129	94	46	124	–
CC#CCOc1ccc(S(=O)(=O)N(Cc2cccnc2)C(C(=O)NO)C(C)C)cc1 (centres unmarked) [Example 114, 2-[(4-but-2-ynyloxy-Benzenesulfonyl)-pyridin-3-ylmethyl-amino]-N-hydroxy-3-methyl-butyramide]	236	193	94	93	–
CC#CCOc1ccc(S(=O)(=O)N(CCN2CCOCC2)CC(=O)NO)cc1 [Example 124, 2-[{[4-(but-2-ynyloxy)Phenyl]sulfonyl}(2-morpholin-4-ylethyl)amino]-N-hydroxyacetamide Hydrochloride]	1770	211	54	13	–
CC(C)(C)OC(=O)NCCCC#CCOc1ccc(S(=O)(=O)N2CCSC(C)(C)[C@@H]2C(=O)NO)cc1 [Example 250, tert-Butyl 6-[4-({(3S)-3-[(Hydroxyamino)carbonyl]-2,2-dimethylthiomorpholinyl}sulfonyl)phenoxy]-4-hexynylcarbamate]	–	–	–	–	IC50 (MMP-1; Table 10): 42 nM; IC50 (MMP-9; Table 10): 160 nM; IC50 (MMP-13; Table 10): 1.7 nM; IC50 ([1]; Table 10): 153 nM
CC#CCOc1ccc(S(=O)(=O)N2CCN(C(=O)C(C)(CO)CO)CC2C(=O)NO)cc1 (centres unmarked) [Example 232, 1-{[4-(2-Butynyloxy)phenyl]sulfonyl}-N-hydroxy-4-[3-hydroxy-2-(hydroxymethyl)-2-methylpropanoyl]-2-piperazinecarboxamide]	1680	785	289	44	–
CC#CCOc1ccc(S(=O)(=O)N2CC[S+]([O-])C(C)(C)C2C(=O)NO)cc1 (single isomer, unassigned) [Example 256]	–	–	–	–	IC50 (MMP-1; Table 9): 43 nM; IC50 (MMP-9; Table 9): 145 nM; IC50 (MMP-13; Table 9): 48 nM; IC50 ([1]; Table 9): 25 nM
CC#CCOc1ccc(S(=O)(=O)N2C[C@H](CN)SC(C)(C)[C@@H]2C(=O)NO)cc1 [Example 276, (3S,6S)-cis-6-(Aminomethyl)-4-{[4-(2-butynyloxy)phenyl]sulfonyl}-N-hydroxy-2,2-dimethyl-3-thiomorpholinecarboxamide Hydrochloride]	–	–	–	–	IC50 (MMP-1; Table 11): 21 nM; IC50 (MMP-9; Table 11): 84 nM; IC50 (MMP-13; Table 11): 24 nM; IC50 ([1]; Table 11): 57 nM
CC#CCOc1ccc(S(=O)(=O)N2CC[S+]([O-])C(C)(C)C2C(=O)NO)cc1 (single isomer, unassigned) [Example 255]	–	–	–	–	IC50 (MMP-1; Table 9): 46 nM; IC50 (MMP-9; Table 9): 29 nM; IC50 (MMP-13; Table 9): 8.7 nM; IC50 ([1]; Table 9): 24 nM
CC#CCOc1ccc(S(=O)(=O)N2CCN(C(=O)OC(C)(C)C)CC2C(=O)NO)cc1 (centres unmarked) [Example 58, 4-(4-but-2-ynyloxy-Benzenesulfonyl)-3-hydroxycarbamoyl-piperazine-1-carboxylic Acid tert-Butyl Ester]	456	24	17	21	–
CC#CCOc1ccc(S(=O)(=O)N(Cc2cccnc2)[C@@H](C(=O)NO)C2CCCCC2)cc1 [Example 116, 2-[(4-but-2-ynyloxy-Benzenesulfonyl)-pyridin-3-ylmethyl-amino]-2-cyclohexyl-N-hydroxy-acetamide]	218	336	53	204	–
